Measured values published in paper PMC5081312, “Antifouling phenyl ethers and other compounds from the invertebrates and their symbiotic fungi collected from the South China Sea” (AMB Express, 2016).
In brackets after ≈: the same amount, converted by molar mass. Like-named read-outs stand apart in the source and are kept apart here.

How the values were obtained:
in vivo = conditions: Artemia salina (brine shrimp), in vivo
Procedure: (§1) The brine shrimp lethality bioassay on Artemia salina was performed to predict the toxicity of the compounds. The test was conducted using 24-well plate as described previously according to standard protocols (Solis et al. [1993]; Meyer et al. [1982]). The wells containing FSW-DMSO (v/v 1:1000) served as the negative controls. Adriamycin was used as a positive control. There were three replicate wells per concentration, and each bioassay experiment had three replicates using three different batches of brine shrimp.

[1] = Anti-larval settlement bioassay (antifouling activity and larval toxicity); type: in vivo; conditions: Balanus (Amphibalanus) amphitrite (barnacle cyprid larvae), in vivo, cyprids of B. amphitrite, 48 h at 28 °C, concentration where 50% of larvae were dead; for LC50 at 48 h: other: larvae immersed in test solution
Procedure: (§2) The newly released nauplii were screened with the aperture of 90 μm. The newly released nauplii were raised in filtered seawater (FSW) at 28 °C with mild aeration and fed with Chaetoceros gracilis Schutt at 1 × 10^6 cells ml^−1. The nauplius larvae transformed into cyprids (ready to attach and metamorphose) after 3.5 days. Newly transformed cyprids were kept in filtered seawater at 4 °C overnight before being used in the anti-larval settlement bioassay.
(§3) The antifouling activity was evaluated as larval settlement inhibition against the cyprids of barnacle B. amphitrite using 24-well polystyrene plates (Nunc, Naperville, CA, USA). Each compound was dissolved in a stock solution of DMSO with the concentration of 50 mg ml^−1, and then diluted 1000 times with FSW to 50 μg ml^−1. The compound was further transferred into FSW to make up the following test solution with the concentrations ranging from 25 to 0.50 μg ml^−1. One millilitre of the test solution and 16–20 larvae were allocated to each well of the 24-well plate. Each concentration had three replicate wells. The plates were cultivated in darkness for 48 h at 28 °C. The effects of the test compounds against the larvae settlement were determined by examining the plates under a dissecting microscope to check for (1) settled larvae (attached and metamorphosed), (2) swimming larvae, as well as (3) any possible toxic effects of the treatments (dead and paralyzed). The number of the settled larvae was expressed as a percentage of the total number of larvae per well. Each compound was tested by triplicate experiments using three different batches of larvae.
(§4) The EC50 and LC50 values of each compound were calculated according to the records of anti-larval settlement experiments. […] Then a concentration–response curve was plotted and a tread line was set up.

[2] = test system: cyprids of barnacle B. amphitrite; test: as above; type: in vivo; conditions: for EC50: read-out: EC50 (larval settlement inhibition); for LC50/EC50 ratio (therapeutic ratio): B. amphitrite cyprids, ratio >15 considered non-toxic
Procedure: as §2, §3, §4

[3] = test system: cyprids of barnacle B. amphitrite; design: method as in Jacobson and Willingham [2000]; conditions: concentration used for positive control; ref Jacobson and Willingham [2000]; cited from earlier work
[4] = test system: brine shrimps Artemia salina; test: in vivo; conditions: read-out: LC50 (brine shrimp lethality); Artemia salina
Procedure: as §1

[5] = LC50 (brine shrimp lethality), Artemia salina
[6] = Amphibalanus amphitrite, 48 h, cyprids of B. amphitrite, 48 h at 28 °C, concentration where 50% of larvae were inhibited to settle vs negative control
[7] = cyprids of B. amphitrite, 48 h at 28 °C, concentration where 50% of larvae were inhibited to settle vs negative control
[8] = Amphibalanus amphitrite, cyprids of B. amphitrite, 48 h at 28 °C, concentration where 50% of larvae were inhibited to settle vs negative control

For COc1cc(C)cc(Oc2cc(C)cc(O)c2)c1 [compound 4, Cordyol E], the LC50 (in vivo; [5]) was 41 µM, the LC50 at 48 h [1] was > 205 µM and the EC50 [2, 6] was 31 µM. For the same compound, the “LC50/EC50 ratio (therapeutic ratio)” value [2] was >6.61.

In the case of Cc1cc(O)cc(Oc2cc(C)cc(O)c2O)c1 [compound 2, Cordyol C], the LC50 (in vivo; [5]) is reported as 126 µM, the LC50 at 48 h [1] is reported as > 203 µM and the EC50 [2, 6] is reported as 57.3 µM. For the same compound, the “LC50/EC50 ratio (therapeutic ratio)” value [2] was >3.54.

In the case of CCCCCCCCn1sc(Cl)c(Cl)c1=O [Sea-Nine 211™, reference compound], the “EC50 value against B. amphitrite” value [3] is listed as 1.23 µg/mL (≈ 4.36 µM), the “LC50/EC50 ratio (therapeutic ratio)” value [2] is listed as 20.3 and the LC50 ([2]; cyprids of B. amphitrite, 48 h at 28 °C, concentration where 50% of larvae were dead) is listed as 88.7 µM. It also gave an EC50 [2, 7] of 4.36 µM.

With COc1cc(C)cc(Oc2cc(C)cc(OC)c2OC)c1O [compound 6, Cordyol D] the LC50 (in vivo; [5]) was 164 µM, the LC50 at 48 h [1] was > 164 µM and the EC50 [2, 6] was 18.2 µM. For the same compound, the “LC50/EC50 ratio (therapeutic ratio)” value [2] was >9.01.

For COC(=O)c1c(C)cc(Oc2cc(C)cc(O)c2)cc1O [compound 3, 4-Methoxyacyl-diorcinol], the LC50 [4] was 34.7 µM, the LC50 (in vivo; [5]) was ≥ 34.7 µM and the LC50 at 48 h [1] was > 174 µM. For the same compound, the EC50 [2, 6] was < 10 µM and the EC50 [2, 7] was 7.43 µM.

For Cc1cc(O)cc(Oc2cc(C)cc(OC(=O)c3ccc(Br)cc3)c2)c1 [compound 15, 3-O-p-Bromobenzoyl-diorcinol], the LC50 (in vivo; [5]) was > 121 µM, the LC50 at 48 h [1] was 60.5 µM and the EC50 [2, 6] was 2.42 µM.

COc1cccc2c1C(=O)c1c(O)c3c(c(O)c1C2=O)C[C@@](O)(C(=O)CO)C[C@@H]3O[C@H]1C[C@H](N)[C@H](O)[C@H](C)O1 [Adriamycin, reference compound] showed an LC50 (in vivo) of 12 µM.

With Cc1cc(O)cc(Oc2cc(C)cc(OC(=O)c3ccccc3)c2)c1 [compound 10, 3-O-benzoyl-diorcinol] the LC50 (in vivo; [5]) was > 150 µM, the LC50 at 48 h [1] was > 150 µM and the EC50 [2, 6] was 12.6 µM. For the same compound, the “LC50/EC50 ratio (therapeutic ratio)” value [2] was >11.9.

For Cc1c(Br)c(O)c(Br)c(Oc2c(Br)c(C)c(Br)c(O)c2Br)c1Br [compound 13, 2,4,6,2′,4′,6′-Hexabromo-diorcinol], the LC50 (in vivo) was 35.6 µM, the LC50 [1] was 22 µM and the EC50 [2, 8] was 0.71 µM.

In the case of COC(=O)c1c(C)c(Br)c(Oc2c(Br)c(C)c(Br)c(O)c2Br)c(Br)c1O [compound 14, 2,6,2′,4′,6′-Pentabromo-4-methoxycarbonyl-diorcinol], the LC50 (in vivo) is reported as > 73.3 µM, the LC50 [1] is reported as 29.3 µM and the EC50 [2, 8] is reported as 1.17 µM.

In the case of CCCCCOc1cc(C)cc(Oc2cc(C)cc(O)c2)c1 [compound 8, 3-O-pentyl-diorcinol], the LC50 at 48 h [1] is reported as > 167 µM, the EC50 [2, 6] is reported as 27.9 µM and the “LC50/EC50 ratio (therapeutic ratio)” value [2] is reported as >5.99.

With Cc1cc(C=O)c2c(C)cc3c(cc1-2)[C@@H](C)CO3 [compound 18, Ochracenoid A] the LC50 at 48 h [1] was 208 µM and the EC50 [2, 6] was 83.3 µM.

For CCCCCOc1cc(C)cc(Oc2cc(C)cc(OCCCCC)c2)c1 [compound 12, 3,3′-O-dipentyl-diorcinol], the LC50 at 48 h [1] was > 135 µM, the EC50 [2, 6] was 12.2 µM and the “LC50/EC50 ratio (therapeutic ratio)” value [2] was >11.1.

With Cc1cc(O)cc(Oc2cc(C)cc(O)c2)c1 [compound 1, Diorcinol] the LC50 (in vivo; [5]) was 126 µM, the LC50 at 48 h [1] was > 217 µM and the EC50 [2, 6] was 32.6 µM. For the same compound, the “LC50/EC50 ratio (therapeutic ratio)” value [2] was >6.67.

With COc1cc(C)cc(Oc2cc(C)cc(OC)c2O)c1O [compound 5, 3,3′-O-dimethylviolaceol-I] the LC50 (in vivo; [5]) was 172 µM, the LC50 at 48 h [1] was > 172 µM and the EC50 [2, 6] was 18.4 µM. The “LC50/EC50 ratio (therapeutic ratio)” value [2] was >9.35.

In the case of CCCOc1cc(C)cc(Oc2cc(C)cc(O)c2)c1 [compound 7, 3-O-propyl-diorcinol], the LC50 at 48 h [1] is reported as 112 µM, the EC50 [2, 6] is reported as < 10 µM and the “LC50/EC50 ratio (therapeutic ratio)” value [2] is reported as 11.4. The EC50 [2, 7] was 9.82 µM.

For CO[C@H]1[C@@H](O)CC/C(C)=C/[C@H]2C=C(C)[C@@H](C)[C@H]3[C@H](CC(C)C)NC(=O)[C@]32C(=O)C[C@@H]1O [compound 46, Aspochalasin K], the LC50 [1] was > 115 µM, the EC50 [2, 8] was 17.3 µM and the “LC50/EC50 ratio (therapeutic ratio)” value [2] was >6.65.

With C=CC(C)(C)c1[nH]c2c(CC=C(C)C)cc(CC=C(C)C)cc2c1C[C@@H]1NC(=O)[C@H](C)NC1=O [compound 44, Echinulin] the LC50 [1] was > 108 µM and the EC50 ([2]; Amphibalanus amphitrite, 48 h) was > 54.2 µM.
